Assay results published in patent US8404692B2, “Pyrimidin-4-yl-3, 4-dihydro-2H-pyrrolo [1,2A] pyrazin-1-one compounds” (Cyclacel Limited, priority 2005, dated 2013).

target: T1, aurora-A (human) (Homo sapiens, UniProt O14965); experiment: Aurora-A (human) kinase assay; format: biochemical; conditions: read-out: Activity (Aurora A activity, IC50 grading)
T1 construct: purchased Upstate, Dundee, UK
T1 sequence (O14965 1-403): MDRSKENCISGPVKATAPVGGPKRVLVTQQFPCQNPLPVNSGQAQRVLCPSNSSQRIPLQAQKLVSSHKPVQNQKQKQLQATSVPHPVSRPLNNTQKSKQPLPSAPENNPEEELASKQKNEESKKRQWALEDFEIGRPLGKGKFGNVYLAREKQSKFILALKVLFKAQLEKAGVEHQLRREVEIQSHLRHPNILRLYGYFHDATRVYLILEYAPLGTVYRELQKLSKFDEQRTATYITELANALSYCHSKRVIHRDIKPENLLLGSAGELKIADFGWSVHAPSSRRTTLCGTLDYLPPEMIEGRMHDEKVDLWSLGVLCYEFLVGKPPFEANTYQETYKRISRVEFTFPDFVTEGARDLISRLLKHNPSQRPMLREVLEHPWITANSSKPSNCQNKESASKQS
Summary of the method: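 Radiometric assay measuring [γ-32P] transfer from 100 μM ATP to 500 μM Kemptide by 2-5 ng active human aurora-A, pH 7.5 buffer, 30 min at 30° C. Incorporated label captured on P81 filters and counted by scintillation; IC50 from curve fitting.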

Cc1c(-c2ccnc(Nc3ccc(-c4csc(CC#N)n4)cc3)n2)c(C)n2c1C(=O)NCC2 [Example I-84] and Cc1c(-c2ccnc(Nc3ccc(CC(N)=O)cc3)n2)c(C)n2c1C(=O)NCC2 [Example I-102, 2-{4-[4-(6,8-Dimethyl-1-oxo-1,2,3,4-tetrahydro-pyrrolo[1,2-a]pyrazin-7-yl)-pyrimidin-2-ylamino]-phenyl}-acetamide] cannot be ordered by IC50: less than 1000 nM for the first, less than 100 nM for the second.

COc1ccc(Nc2nccc(-c3c(C)c4n(c3C)CCNC4=O)n2)c(OC)c1 [Example I-85, 7-[2-(2,4-Dimethoxy-phenylamino)-pyrimidin-4-yl]-6,8-dimethyl-3,4-dihydro-2H-pyrrolo[1,2-a]pyrazin-1-one] and COc1ccc(Cl)cc1Nc1nccc(-c2c(C)c3n(c2C)CCNC3=O)n1 [Example I-87, 7-[2-(5-Chloro-2-methoxy-phenylamino)-pyrimidin-4-yl]-6,8-dimethyl-3,4-dihydro-2H-pyrrolo[1,2-a]pyrazin-1-one] cannot be ordered by IC50: less than 10000 nM for the first, less than 10000 nM for the second.

Cc1c(-c2ccnc(Nc3ccc(F)cc3Cl)n2)c(C)n2c1C(=O)NCC2 [Example I-86, 7-[2-(2-Chloro-4-fluoro-phenylamino)-pyrimidin-4-yl]-6,8-dimethyl-3,4-dihydro-2H-pyrrolo[1,2-a]pyrazin-1-one] and Cc1ccc(F)cc1Nc1nccc(-c2c(C)c3n(c2C)CCNC3=O)n1 [Example I-88, 7-[2-(5-Fluoro-2-methyl-phenylamino)-pyrimidin-4-yl]-6,8-dimethyl-3,4-dihydro-2H-pyrrolo[1,2-a]pyrazin-1-one] cannot be ordered by IC50: less than 10000 nM for the first, less than 10000 nM for the second.

Cc1ccc(Oc2ccc(Nc3nccc(-c4c(C)c5n(c4C)CCNC5=O)n3)cc2)cc1 [Example I-89, 6,8-Dimethyl-7-[2-(4-p-tolyloxy-phenylamino)-pyrimidin-4-yl]-3,4-dihydro-2H-pyrrolo[1,2-a]pyrazin-1-one] and CNC(=O)Cc1ccc(Nc2nccc(-c3c(C)c4n(c3C)CCNC4=O)n2)cc1 [Example I-103, 2-{4-[4-(6,8-Dimethyl-1-oxo-1,2,3,4-tetrahydro-pyrrolo[1,2-a]pyrazin-7-yl)-pyrimidin-2-ylamino]-phenyl}-N-methyl-acetamide] cannot be ordered by IC50: less than 10000 nM for the first, less than 100 nM for the second.

CCN(CC)CCNS(=O)(=O)c1ccc(Nc2nccc(-c3c(C)c4n(c3C)CCNC4=O)n2)cc1C [Example I-90, N-(2-Diethylamino-ethyl)-4-[4-(6,8-dimethyl-1-oxo-1,2,3,4-tetrahydro-pyrrolo[1,2-a]pyrazin-7-yl)-pyrimidin-2-ylamino]-2-methyl-benzenesulfonamide] and Cc1cc(Nc2nccc(-c3c(C)c4n(c3C)CCNC4=O)n2)ccc1S(=O)(=O)N(C)CCCN(C)C [Example I-91, N-(3-Dimethylamino-propyl)-4-[4-(6,8-dimethyl-1-oxo-1,2,3,4-tetrahydro-pyrrolo[1,2-a]pyrazin-7-yl)-pyrimidin-2-ylamino]-2,N-dimethyl-benzenesulfonamide] cannot be ordered by IC50: less than 10000 nM for the first, less than 10000 nM for the second.

CCOC(=O)c1c(C)nn(-c2ccc(Nc3nccc(-c4c(C)c5n(c4C)CCNC5=O)n3)cc2)c1C [Example I-92, 1-{4-[4-(6,8-Dimethyl-1-oxo-1,2,3,4-tetrahydro-pyrrolo[1,2-a]pyrazin-7-yl)-pyrimidin-2-ylamino]-phenyl}-3,5-dimethyl-1H-pyrazole-4-carboxylic acid ethyl ester] and Cc1c(-c2ccnc(Nc3ccc(CC(=O)N(C)C)cc3)n2)c(C)n2c1C(=O)NCC2 [Example I-104, 2-{4-[4-(6,8-Dimethyl-1-oxo-1,2,3,4-tetrahydro-pyrrolo[1,2-a]pyrazin-7-yl)-pyrimidin-2-ylamino]-phenyl}-N,N-dimethyl-acetamide] cannot be ordered by IC50: less than 10000 nM for the first, less than 1000 nM for the second.

Cc1nccc(-c2cccc(Nc3nccc(-c4c(C)c5n(c4C)CCN(C)C5=O)n3)c2)n1 [Example I-93, 2,6,8-Trimethyl-7-{2-[3-(2-methyl-pyrimidin-4-yl)-phenylamino]-pyrimidin-4-yl}-3,4-dihydro-2H-pyrrolo[1,2-a]pyrazin-1-one] and CCN1CCn2c(C)c(-c3ccnc(Nc4cccc(-c5ccnc(C)n5)c4)n3)c(C)c2C1=O [Example I-95, 2-Ethyl-6,8-dimethyl-7-{2-[3-(2-methyl-pyrimidin-4-yl)-phenylamino]-pyrimidin-4-yl}-3,4-dihydro-2H-pyrrolo[1,2-a]pyrazin-1-one] cannot be ordered by IC50: less than 100 nM for the first, less than 1000 nM for the second.

Cc1c(-c2ccnc(Nc3ccc4c(c3)CS(=O)(=O)C4)n2)c(C)n2c1C(=O)N(C)CC2 [Example I-94, 7-[2-(2,2-Dioxo-2,3-dihydro-1H-2-benzo[c]thiophen-5-ylamino)-pyrimidin-4-yl]-2,6,8-trimethyl-3,4-dihydro-2H-pyrrolo[1,2-a]pyrazin-1-one] and Cc1c(-c2ccnc(Nc3ccc(CC(=O)N4CCN(C)CC4)cc3)n2)c(C)n2c1C(=O)NCC2 [Example I-101, 6,8-Dimethyl-7-(2-{4-[2-(4-methyl-piperazin-1-yl)-2-oxo-ethyl]-phenylamino}-pyrimidin-4-yl)-3,4-dihydro-2H-pyrrolo[1,2-a]pyrazin-1-one] cannot be ordered by IC50: less than 100 nM for the first, less than 100 nM for the second.

Cc1c(-c2ccnc(Nc3cccc(S(=O)(=O)N4CCCCC4)c3)n2)c(C)n2c1C(=O)NCC2 [Example I-95c, 6,8-Dimethyl-7-{2-[3-(piperidine-1-sulfonyl)-phenylamino]-pyrimidin-4-yl}-3,4-dihydro-2H-pyrrolo[1,2-a]pyrazin-1-one] and Cc1c(-c2ccnc(Nc3ccc(CC(=O)N4CCOCC4)cc3)n2)c(C)n2c1C(=O)NCC2 [Example I-99, 6,8-Dimethyl-7-{2-[4-(2-morpholin-4-yl-2-oxo-ethyl)-phenylamino]-pyrimidin-4-yl}-3,4-dihydro-2H-pyrrolo[1,2-a]pyrazin-1-one] cannot be ordered by IC50: less than 10000 nM for the first, less than 1000 nM for the second.

COCCNC(=O)Cc1ccc(Nc2nccc(-c3c(C)c4n(c3C)CCNC4=O)n2)cc1 [Example I-96, 2-{4-[4-(6,8-Dimethyl-1-oxo-1,2,3,4-tetrahydro-pyrrolo[1,2-a]pyrazin-7-yl)-pyrimidin-2-ylamino]-phenyl}-N-(2-methoxy-ethyl)-acetamide] and COCCNC(=O)CCc1cccc(Nc2nccc(-c3c(C)c4n(c3C)CCNC4=O)n2)c1 [Example I-105, 3-{3-[4-(6,8-Dimethyl-1-oxo-1,2,3,4-tetrahydro-pyrrolo[1,2-a]pyrazin-7-yl)-pyrimidin-2-ylamino]-phenyl}-N-(2-methoxy-ethyl)-propionamide] cannot be ordered by IC50: less than 100 nM for the first, less than 100 nM for the second.

Cc1c(-c2ccnc(Nc3ccc(CC(=O)N(C)CCN(C)C)cc3)n2)c(C)n2c1C(=O)NCC2 [Example I-97, N-(2-Dimethylamino-ethyl)-2-{4-[4-(6,8-dimethyl-1-oxo-1,2,3,4-tetrahydro-pyrrolo[1,2-a]pyrazin-7-yl)-pyrimidin-2-ylamino]-phenyl}-N-methyl-acetamide] and Cc1c(-c2ccnc(Nc3ccc(CC(=O)N(C)CCCN(C)C)cc3)n2)c(C)n2c1C(=O)NCC2 [Example I-98, N-(3-Dimethylamino-propyl)-2-{4-[4-(6,8-dimethyl-1-oxo-1,2,3,4-tetrahydro-pyrrolo[1,2-a]pyrazin-7-yl)-pyrimidin-2-ylamino]-phenyl}-N-methyl-acetamide] cannot be ordered by IC50: less than 1000 nM for the first, less than 1000 nM for the second.

With CC(=O)N1CCN(C(=O)Cc2ccc(Nc3nccc(-c4c(C)c5n(c4C)CCNC5=O)n3)cc2)CC1 [Example I-100, 7-(2-{4-[2-(4-Acetyl-piperazin-1-yl)-2-oxo-ethyl]-phenylamino}-pyrimidin-4-yl)-6,8-dimethyl-3,4-dihydro-2H-pyrrolo[1,2-a]pyrazin-1-one] the IC50 was less than 1000 nM.
